Test results: patent US20230365493A1, “COMPOUNDS AND METHODS” (DEMAGTECH PTY LTD, priority 2020, published 2023)

Experiments:
[1] = tested on: Ratibida columnifera (prairie coneflower); assay: Activity vs a panel of plants: Ratibida columnifera; format: in vivo; settings: 31.25 μM to 4000 μM; imaged day 12
Description: (§1) Pots (63×63×59 mm) were filled with Seedling Substrate Plus+ soil (Bord na Móna Horticulture Ltd, Newbridge, Ireland) consisting of Irish peat. Soil was pre-wet to saturation before sowing seeds. Seeds of the following species were sown. • Arabidopsis thaliana • Cynodon dactylon (couch grass) • Eragrostis tef (tef) • Lolium rigidum (herbicide resistant ryegrass) • Ratibida columnifera (prairie coneflower) • Raphanus raphanistrum (wild radish) • Solanum lycopersicum (tomato) • Triticum aestivum (wheat)
(§2) The number of seeds depended on germination rate and plant size. Seeds were sown in pots (63×63×59 mm) of Seedling Substrate Plus+ soil (Bord na Móna Horticulture Ltd, Newbridge, Ireland) consisting of Irish peat. Soil was pre-wet before sowing to saturation and watered throughout the experiment to maintain adequate moisture. No fertilizer was added. Seeds were cold-treated 7 days in the dark at 4° C. to synchronize germination and grown in a chamber at 22° C., with 60% relative humidity and a 16 h light/8 h dark photoperiod. […]
(§3) Each compound was tested on seedlings by pipetting 600 μL of 0, 31.25, 62.5, 125, 250, 500, 1000, 2000 or 4000 μmol/L solutions directly onto the plants; these quantities and concentrations are equivalent to ˜10, 20, 40, 78, 156, 312, 625 and 1250 g/ha a.i. […]

Arabidopsis thaliana [2] = assay: Activity vs a panel of plants: Arabidopsis thaliana; format: in vivo; settings: 31.25 μM to 4000 μM; imaged day 12
Description: as §1, §2, §3

Eragrostis tef (tef) = assay: Activity vs a panel of plants: Eragrostis tef; format: in vivo; settings: 31.25 μM to 4000 μM; imaged day 12
Description: as §1, §2, §3

[3] = tested on: Lolium rigidum (herbicide resistant ryegrass); assay: Activity vs a panel of plants: Lolium rigidum; format: in vivo; settings: 31.25 μM to 4000 μM; imaged day 12
Description: as §1, §2, §3

[4] = tested on: Solanum lycopersicum (tomato); assay: Activity vs a panel of plants: Solanum lycopersicum; format: in vivo; settings: 31.25 μM to 4000 μM; imaged day 10
Description: as §1, §2, §3

[5] = tested on: A. thaliana wild type Col-0 or single-locus DMOc line; assay: Compatibility with the DMOc dicamba tolerance trait; format: in vivo, Arabidopsis thaliana; settings: wild type vs DMOc line; dicamba 7-125 μM, 1·HCl 31-500 μM; sprayed at 4 and 7 days; imaged Day 11
Description: To recreate dicamba tolerance by dicamba monooxygenase in A. thaliana similarly to that made by Behrens et al. (2007, Science 316: 1185-1188) a synthetic gene encoding the oxygenaseDIC from Stenotrophomonas maltophilia strain DI-6 (GenBank accession AY786443) was made to include a 58-residue chloroplast targeting leader used by Anderson and Smith (1986, Biochem. J. 240: 709-715) and incorporated a […] mutation said to provide useful changes in pH and temperature optima (See, for example, […] in International Patent Application WO2007146706A2). A BamHI site immediately preceding the sequence encoding the start Met and a SacI site immediately after the stop codon were used to subclone this synthetic DMOc gene into pMDC43 (Curtis and Grossniklaus 2003 Plant Physiol. 133: 462-469), from which the mGFP6 coding sequence and Gateway recombination cassette were removed by the same restriction enzymes, putting DMOc under control of a double CaM[…] promoter and providing it the nopaline synthase terminator. The plasmid pMDC43-DMOc was transferred from E. coli containing the plasmid to Agrobacterium tumefaciens (strain LBA4404) using a helper strain (E. coli […] pRK2013). Wild type Col-0 Arabidopsis thaliana was transformed by in planta transformation. The first transgenic generation (T1) was selected on MS-agar plates (1% agar, 1×MS salts, pH 5.7, 1% glucose) containing 20 μg/mL hygromycin. […]

[6] = tested on: Triticum aestivum (wheat); assay: Activity vs a panel of plants: Triticum aestivum; format: in vivo; settings: 31.25 μM to 4000 μM; imaged day 12
Description: as §1, §2, §3

Arabidopsis thaliana [7] = assay: Small-scale drift (volatility) assay; parameters: species or system Arabidopsis thaliana Col-0; settings: for drift burn (volatility), FIG. 6: 15 mM and 30 mM, same methodology; for drift behaviour, FIG. 27: 2.5 or 5 mM, images recorded at 17 days; for drift burn (volatility), FIG. 5: 5, 10 or 15 mM in lid in centre of pot, imaged after 2 weeks
Description: A small-scale drift assay was established. Pots (63×63×59 mm) were filled with Seedling Substrate Plus+ soil (Bord na Móna Horticulture Ltd, Newbridge, Ireland) consisting of Irish peat. Soil was pre-wet before sowing to saturation and a plastic lid from a 50 mL tube placed in the centre of each pot. Seeds of wild type Col-0 Arabidopsis thaliana were sown around each of the lids. Seeds were cold-treated for 3 days in the dark at 4° C. to synchronize germination and then grown in a chamber at 22° C., with 60% relative humidity and in a 16 h light/8 h dark photoperiod. […] After growth for 2 weeks plants were imaged. (In the case of FIG. 27, images were recorded at 17 days).
A second experiment was performed using the same methodology, but at higher concentrations (15 mM and 30 mM).

[8] = tested on: Raphanus raphanistrum (wild radish); assay: Activity vs a panel of plants: Raphanus raphanistrum; format: in vivo; settings: 31.25 μM to 4000 μM; imaged day 10
Description: as §1, §2, §3

[9] = tested on: Cynodon dactylon (couch grass); assay: Activity vs a panel of plants: Cynodon dactylon; format: in vivo; settings: 31.25 μM to 4000 μM; imaged day 10
Description: as §1, §2, §3

COc1c(Cl)ccc(Cl)c1C(=O)OCCN(C)C.Cl [Compound 1. HCl, 2-(dimethylamino)ethyl 3,6-dichloro-2-methoxybenzoate hydrochloride]
activity against Ratibida columnifera on an equimolar basis, FIG. 12 [1]: comparable activity | activity against Arabidopsis thaliana on an equimolar basis, FIG. 7 (Arabidopsis thaliana [2]): comparable activity | activity against Eragrostis tef on an equimolar basis, FIG. 10 (Eragrostis tef (tef)): comparable activity | activity against Lolium rigidum on an equimolar basis, FIG. 11 [3]: comparable activity | activity against Solanum lycopersicum on an equimolar basis, FIGS. 15 and 16 [4]: comparable activity | compatibility with the dicamba tolerance (DMOc) trait, FIG. 26 [5]: Compatible with the DMOc Trait | activity against Triticum aestivum on an equimolar basis, FIG. 17 [6]: comparable activity | drift burn (volatility), FIG. 6 (Arabidopsis thaliana [7]): did not show any drift burn | drift behaviour, FIG. 27 (Arabidopsis thaliana [7]): does not drift | drift burn (volatility), FIG. 5 (Arabidopsis thaliana [7]): no drift burn at all was visible | activity against Raphanus raphanistrum on an equimolar basis, FIGS. 13 and 14 [8]: comparable activity | activity against Cynodon dactylon on an equimolar basis, FIGS. 8 and 9 [9]: comparable activity

COc1c(Cl)ccc(Cl)c1C(=O)O [dicamba, 3,6-dichloro-2-methoxybenzoic acid, reference compound]
activity against Ratibida columnifera on an equimolar basis, FIG. 12 [1]: comparable activity | activity against Arabidopsis thaliana on an equimolar basis, FIG. 7 (Arabidopsis thaliana [2]): comparable activity | activity against Eragrostis tef on an equimolar basis, FIG. 10 (Eragrostis tef (tef)): comparable activity | activity against Lolium rigidum on an equimolar basis, FIG. 11 [3]: comparable activity | activity against Solanum lycopersicum on an equimolar basis, FIGS. 15 and 16 [4]: comparable activity | compatibility with the dicamba tolerance (DMOc) trait, FIG. 26 [5]: compatibility | activity against Triticum aestivum on an equimolar basis, FIG. 17 [6]: comparable activity | drift burn (volatility), FIG. 6 (Arabidopsis thaliana [7]): did | drift behaviour, FIG. 27 (Arabidopsis thaliana [7]): drifted | drift burn (volatility), FIG. 5 (Arabidopsis thaliana [7]): burn symptoms are apparent | activity against Raphanus raphanistrum on an equimolar basis, FIGS. 13 and 14 [8]: comparable activity | activity against Cynodon dactylon on an equimolar basis, FIGS. 8 and 9 [9]: comparable activity
